How the values were obtained:
Recombinant p62 protein = biological target: T1, Recombinant p62 protein (Homo sapiens, UniProt Q13501); assay: Surface plasmon resonance (SPR) compound binding to immobilised p62; conditions: recombinant p62, 15° C
T1 construct: Recombinant p62 protein was buffer exchanged into Biacore SPR running buffer
Description: Example 28: Surface Plasmon Resonance (SPR) Analysis
Recombinant p62 protein was buffer exchanged into Biacore SPR running buffer (Cytiva 100671) using the Slide-A-Lyzer Mini Dialysis system 7K MWCO (Thermo Fisher Scientific, Cat no. 69560). The final protein concentration was determined using the Nanodrop One spectrophotometer (Thermo Fisher Scientific, cat no. ND-ONE-W), with calibration for the dialysis buffer.
The prepared protein was diluted in sodium acetate buffer (NaAc, pH 5.5, Cytiva) to concentrations ranging from approximately 0.25-40 μg/mL. Post-immobilization, the protein required approximately 16 hours of equilibration in running buffer supplemented with 1% DMSO at 15° C. to ensure adequate surface equilibration and protein reorganization.
All SPR experiments were conducted at a constant temperature of 15° C. The SPR chip surface was activated using EDC/NHS for a contact time of 6-10 min at a flow rate of 10 μL/min. This was followed by protein immobilization for 2100 seconds and ethanolamine capping for 420 seconds, both at the same flow rate. Immediately after immobilization, the NH2—REEE peptide was analyzed in Single Cycle Kinetics mode (SCK) to verify surface activity, ensuring it binds the sample with the published affinity (−20 μM by SPR).
For general compound binding studies, experiments were performed at 15° C. using a running buffer composed of 10 mM HEPES, 150 mM NaCl, 1 mM DTT, 0.05% Tween 20, and 1% DMSO at pH 7.4. The test compound was initially prepared at a 20 mM concentration in DMSO and subsequently titrated in 2-fold dilutions. For each assay, 2 μL of the compound was mixed with 198 μL of the running buffer, and the mixture was thoroughly pipetted approximately 15 times for homogenization.
A series of blank injections (0 μM concentration) were included for double referencing, with at least 8 or 16 per plate depending on the format. Typical injection parameters were 120 seconds for association and 180 seconds for dissociation at a flow rate of […]. A four-point solvent correction was prepared with DMSO concentrations ranging from 2% to 0.5% in the buffer. Post each compound injection, the system's needles were washed with 50% DMSO.
Analysis of the SPR data was conducted using the Cytiva Evaluation software. The binding levels at the late time-point of each interaction were corrected for reference, then normalized to percentage bound values to account for variations in immobilization levels, protein molecular weight, and compound molecular weight.
Compound binding studies were carried out according to experimental procedures above and SPR % occupancy was determined and summarized in Table 7.

[1] = tested on: p62 oligomers in HeLa cells; assay: p62 oligomerization assay (Western blot, 24 h treatment); type: cell-based; conditions: fold change of p62 oligomer levels relative to DMSO control
Description: (§1) HeLa cells were seeded in 6-well plates (700,000 cells) and allowed to adhere overnight. Media was replaced one hour before administering either vehicle (DMSO) or test compounds. After 24 hours of treatment, the media was discarded, and cells were rinsed once with ice-cold 1×PBS before detached from plates with ice-cold RIPA Lysis and Extraction Buffer (Thermo Fisher Scientific) which was supplemented with protease and phosphatase inhibitors. The resulting cell suspensions were transferred to pre-chilled microcentrifuge tubes, incubated on ice for 20 min with intermittent mixing and then centrifuged at 12,000 rpm for 20 min at 4° C. The supernatants were then aspirated slowly and transferred into new tubes kept on ice. The protein concentration in the samples was determined using BCA kit (Thermo Fisher Scientific) as per manufacturer's instructions.
(§2) For the p62 oligomerization and LC3 lipidation assays, cell lysates were prepared using RIPA buffer supplemented with 2% SDS and benzonase (Sigma). The lysates were then combined with 4× Laemmli protein sample buffer (Bio-Rad), heated at 70° C. for 10 min and subjected to a brief centrifugation of 10-15 seconds.
(§3) For p62 oligomerization and LC3 lipidation assays, lysates containing 30 μg of protein and for BRD4 and FKBP12(F36V) degradation assays, lysates containing 20 μg of protein, were loaded slowly into the wells of 4-20% gradient Tris-glycine gels (Bio-Rad). The gels were run at 100V until completion and transferred onto PVDF membranes. Membranes were blocked using 5% milk in TBS-Tween (0.1%) buffer at room temperature for 1 hour. The membranes were incubated with primary antibody in 5% milk-TBST with shaking, overnight at 4° C. The primary antibodies used were: p62 (Novus Biologicals 2C11, H00008878-MO1), LC3A/B (Cell Signalling Technology D3U4C, 12741S), FKBP12 (Abcam ab24373), BRD4 (Cell Signalling Technology E2A7X, 13440S), GAPDH (Cell Signalling Technology D4C6R, 97166S), and β-Actin (Proteintech 66009-1-Ig). Following primary antibody incubation, membranes were washed thrice with TBST 10 min before and after incubation with secondary-HRP conjugated antibody in 5% milk-TBST for 1 hour at room temperature. The secondary antibodies used were: Anti-Mouse IgG HRP Conjugate (Promega W4021B) and Anti-Rabbit IgG HRP Conjugate (Promega W4011B). For the p62 oligomerization assay, the total protein levels were assessed using Ponceau staining (Thermo Fisher Scientific) of PVDF membrane as per recommendation by manufacturer's guidelines.
(§4) Imaging was acquired using SuperSignal™ West Pico PLUS Chemiluminescent Substrate (Thermo Fisher Scientific) with iBright Invitrogen FL100 imaging system. Band signal intensity, reflective of protein concentrations, were quantified using Invitrogen™ iBright™ Analysis and Image J software.
HeLa cells were treated with compounds for 24 hours to evaluate the effect of these compounds on p62 oligomerisation activity. The resulting changes in levels of p62 oligomers were assessed by Western blotting, as described in experimental procedures. The fold change of p62 oligomer levels induced by compound treatment relative to vehicle control (DMSO) was determined and summarized in Table 8. Specifically, FIGS. 2A-C show Western blot images and their corresponding quantification showing the levels of high molecular weight (100-200 kDa) p62 oligomers by 24 hours compound treatments at listed concentrations, relative to vehicle control (DMSO) in HeLa cells. Protein loading consistencies was assessed by Ponceau staining (not shown).

[2] = tested on: LC3 protein (LC3-II/LC3-I) in HeLa cells; assay: LC3 lipidation assay (LC3-II/LC3-I, Western blot, 24 h treatment); type: cell-based; conditions: fold change in LC3-II/LC3-I relative to DMSO control
Description: as §1, §2, §3, §4
HeLa cells were treated with compounds for 24 hours to evaluate the effect of these compounds on LC3-II/LC3-I levels, a measure of autophagy activation. The changes in levels of LC3-I, LC3-II and β-Actin (loading control) were assessed by Western blotting, as described in experimental procedures. The fold increase of LC3-II/LC3-I levels induced by compound treatment relative to vehicle control (DMSO) was determined and summarized in Table 9. Specifically, FIGS. 3A-C show Western blot images and their corresponding quantification showing the lipidation levels of LC3 protein (LC3-II/LC3-I) by 24 hours compound treatments at listed concentrations, relative to vehicle control (DMSO) in HeLa cells.

BRD4 in HeLa cells = biological target: T2, BRD4 in HeLa cells (Homo sapiens, UniProt O60885); assay: BRD4 degradation assay (Western blot, 24 h treatment); type: cell-based; conditions: doses up to 10 μM
T2 construct: endogenous in cells; host or cells: HeLa
Description: as §1
For the BRD4 degradation assay, cell lysates were prepared with RIPA buffer containing 0.25% SDS. These were mixed with 4× Laemmli protein sample buffer (Bio-Rad) supplemented with beta-mercaptoethaol (355 mM). The lysates were then heated at 95° C. for 5 min, and briefly centrifuged for 10-15 seconds.
For p62 oligomerization and LC3 lipidation assays, lysates containing 30 μg of protein and for BRD4 and FKBP12(F36V) degradation assays, lysates containing 20 μg of protein, were loaded slowly into the wells of 4-20% gradient Tris-glycine gels (Bio-Rad). The gels were run at 100V until completion and transferred onto PVDF membranes. Membranes were blocked using 5% milk in TBS-Tween (0.1%) buffer at room temperature for 1 hour. The membranes were incubated with primary antibody in 5% milk-TBST with shaking, overnight at 4° C. […] For the p62 oligomerization assay, the total protein levels were assessed using Ponceau staining (Thermo Fisher Scientific) of PVDF membrane as per recommendation by manufacturer's guidelines.
as §4
To evaluate levels of protein degradation by compounds 100-103, HeLa cells were treated with the corresponding compounds at doses up to 10 μM for 24 hours. The changes in levels of BRD4 and GAPDH (loading control) were assessed by Western blotting, as described in experimental procedures. Results are summarized in Table 11 below, measured by percentage change in BRD4 levels by compound treatment relative to vehicle (DMSO) control.

T1 sequence (Q13501 whole entry, species assumed): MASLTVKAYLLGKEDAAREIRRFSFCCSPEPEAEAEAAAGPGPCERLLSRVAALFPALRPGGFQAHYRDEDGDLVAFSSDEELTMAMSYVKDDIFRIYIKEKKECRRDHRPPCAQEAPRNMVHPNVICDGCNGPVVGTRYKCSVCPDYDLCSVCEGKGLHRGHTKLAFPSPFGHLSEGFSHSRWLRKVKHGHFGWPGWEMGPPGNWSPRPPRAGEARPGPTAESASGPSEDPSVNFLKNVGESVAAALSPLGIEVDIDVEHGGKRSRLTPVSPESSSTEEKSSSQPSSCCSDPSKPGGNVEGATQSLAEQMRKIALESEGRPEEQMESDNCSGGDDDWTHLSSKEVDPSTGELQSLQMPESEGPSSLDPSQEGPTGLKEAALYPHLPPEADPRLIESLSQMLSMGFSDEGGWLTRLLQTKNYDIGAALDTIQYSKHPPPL

Structure (SMILES) | receptor occupancy at 100 µM (Recombinant p62 protein) | p62 oligomerization [1] | LC3 lipidation [2] | Degradation (change in BRD4 levels relative to DMSO control) (BRD4 in HeLa cells)
CC(C)NCCOCc1ccc2cc(Cc3ccccc3)oc2c1 [Compound 7, N-(2-((2-benzylbenzofuran-6-yl)methoxy)ethyl)propan-2-amine] | 30 to 70% | ++ (> 2-fold change relative to DMSO control) | ++ (> 2-fold change in LC3-II/LC3-I relative to DMSO control) | 
CC(C)NCC(O)COc1ccc2cc(Cc3ccccc3)oc2c1 (stereo not drawn) [Compound 9, 1-((2-benzylbenzofuran-6-yl)oxy)-3-(isopropylamino)propan-2-ol] | > 70% | + (< 2-fold change relative to DMSO control) | ++ (> 2-fold change in LC3-II/LC3-I relative to DMSO control) | 
OCCNCc1ccc2cc(CNC3CCCC(O)C3)oc2c1 (stereo not drawn) [Compound 33, 3-(((6-(((2-hydroxyethyl)amino)methyl)benzofuran-2-yl)methyl)amino)cyclohexan-1-ol] | 30 to 70% | + (< 2-fold change relative to DMSO control) | + (< 2-fold change in LC3-II/LC3-I relative to DMSO control) | 
OCCNCc1ccc2c(Cc3ccccc3)coc2c1 [Compound 43, 2-(((3-benzylbenzofuran-6-yl)methyl)amino)ethan-1-ol] | 30 to 70% | + (< 2-fold change relative to DMSO control) | ++ (> 2-fold change in LC3-II/LC3-I relative to DMSO control) | 
OCCNCc1ccc2cc(CCc3ccccc3)oc2c1 [compound 3] | 30 to 70% | ++ (> 2-fold change relative to DMSO control) | ++ (> 2-fold change in LC3-II/LC3-I relative to DMSO control) | 
CC(O)CNCc1ccc2cc(Cc3ccccc3)oc2c1 (stereo not drawn) [compound 5] | 30 to 70% | + (< 2-fold change relative to DMSO control) | + (< 2-fold change in LC3-II/LC3-I relative to DMSO control) | 
CNCCOCc1ccc2cc(Cc3ccccc3)oc2c1 [compound 8] | 30 to 70% | ++ (> 2-fold change relative to DMSO control) | + (< 2-fold change in LC3-II/LC3-I relative to DMSO control) | 
OC1CC(NCc2ccc3cc(Cc4ccccc4)oc3c2)C1 (stereo not drawn) [compound 10] | 30 to 70% | ++ (> 2-fold change relative to DMSO control) | + (< 2-fold change in LC3-II/LC3-I relative to DMSO control) | 
OCCNCc1ccc2cc(Cc3cccc(Cl)c3)oc2c1 [compound 15] | > 70% | ++ (> 2-fold change relative to DMSO control) | + (< 2-fold change in LC3-II/LC3-I relative to DMSO control) | 
COc1ccc(Cc2cc3ccc(CNCCO)cc3o2)cc1 [compound 17] | 30 to 70% | + (< 2-fold change relative to DMSO control) | + (< 2-fold change in LC3-II/LC3-I relative to DMSO control) | 
O=C(Nc1ccccc1)c1cc2ccc(CNCCO)cc2o1 [compound 35] | 30 to 70% | + (< 2-fold change relative to DMSO control) | + (< 2-fold change in LC3-II/LC3-I relative to DMSO control) | 
OCCNCc1cc(F)c2cc(Cc3ccccc3)oc2c1 [compound 37] | 30 to 70% | ++ (> 2-fold change relative to DMSO control) | ++ (> 2-fold change in LC3-II/LC3-I relative to DMSO control) | 
Cc1sc2c(c1C)C(c1ccc(Cl)cc1)=N[C@@H](CC(=O)NCCOCCOCCOCCNCc1ccc3cc(Cc4ccccc4)oc3c1)c1nnc(C)n1-2 [compound 100, (S)-N-(1-(2-benzylbenzofuran-6-yl)-5,8,11-trioxa-2-azatridecan-13-yl)-2-(4-(4-chlorophenyl)-2,3,9-trimethyl-6H-thieno[3,2-f][1,2,4]triazolo[4,3-a][1,4]diazepin-6-yl)acetamide] |  |  |  | ++ (> 2-fold change in BRD4 levels relative to DMSO control)
Cc1sc2c(c1C)C(c1ccc(Cl)cc1)=N[C@@H](CC(=O)NCCOCCOCCOCCNCc1ccc3cc(CCc4ccccc4)oc3c1)c1nnc(C)n1-2 [compound 101] |  |  |  | ++ (> 2-fold change in BRD4 levels relative to DMSO control)
Cc1sc2c(c1C)C(c1ccc(Cl)cc1)=N[C@@H](CC(=O)NCCOCCNCc1ccc3cc(Cc4ccccc4)oc3c1)c1nnc(C)n1-2 [compound 102] |  |  |  | + (< 2-fold change in BRD4 levels relative to DMSO control)

— patent US20250282742A1, “BENZOFURAN DERIVATIVES FOR TARGETING AUTOPHAGY” (Automera PTE. LTD, priority 2024, published 2025)
